From patent US7105562B2, “Geometrically restricted 3-cyclopentylidene-1,3-dihydroindol-2-ones as potent protein tyrosine kinase inhibitors” (Sugen, Inc., priority 2003, dated 2006)

Molecular target: FGFR1 (Homo sapiens, UniProt P11362)
Test: FGFR1 Bioassay (in vitro kinase activity, ELISA)
Assay type: biochemical
Details: purified GST-FGFR1, poly(Glu-Tyr) substrate, read-out: FGFR IC50
Procedure: This assay is used to measure the in vitro kinase activity of FGF1-R in an ELISA assay.
1. Costar 96-well ELISA plates (Corning Catalog # 3369).
2. Poly(Glu-Tyr) (Sigma Catalog # P0275).
4. 50 mM Hepes Buffer Solution.
5. Blocking Buffer (5% BSA/PBS).
6. Purified GST-FGFR1 (SUGEN, Inc.)
7. Kinase Dilution Buffer.
Mix 500 μl 1M Hepes (GIBCO), 20 μl 5% BSA/PBS, 10 μl 100 mM sodium orthovanadate and 50 μl 5M NaCl.
9. ATP/MnCl2 phosphorylation mix: mix 20 μL ATP, 400 μL 1 M MnCl2 and 9.56 ml dH2O.
10. NUNC 96-well V bottom polypropylene plates (Applied Scientific Catalog # AS-72092).
Add 500 μL TWEEN to 1 liter TBS.
13. Rabbit polyclonal anti-phosphotyrosine serum (SUGEN, Inc.).
14. Goat anti-rabbit IgG peroxidase conjugate (Biosource, Catalog # ALI0404).
1. Coat Costar 96 well ELISA plates with 1 μg per well Poly(Glu-Tyr) in 100 μl PBS. Store overnight at 4° C.
2. Wash coated plates once with PBS.
3. Add 150 μL of 5% BSA/PBS Blocking Buffer to each well. Incubate, with shaking, for 1 hr at room temperature.
4. Wash plate 2× with PBS, then once with 50 mM Hepes. Pat plates on a paper towel to remove excess liquid and bubbles.
5. Add 25 μL of 0.4 mM test compound in 4% DMSO or 4% DMSO alone (controls) to plate.
6. Dilute purified GST-FGFR1 in Kinase Dilution Buffer (5 ng kinase/50 ul KDB/well).
7. Add 50 μL of diluted kinase to each well.
8. Start kinase reaction by adding 25 μl/well of freshly prepared ATP/Mn++ (0.4 ml 1M MnCl2, 40 μL 10 mM ATP, 9.56 ml dH2O), freshly prepared).
9. Stop reaction with 25 μL of 0.5M EDTA.
10. Wash plate 4× with fresh TBST.
11. Make up Antibody Dilution Buffer: For 50 ml, mix 5 ml of 5% BSA, 250 μl of 5% milk and 50 μl of 100 mM sodium vanadate, bring to final volume with 0.05% TBST.
12. Add 100 μl per well of anti-phosphotyrosine (1:10000 dilution in ADB). Incubate, with shaking for 1 hr. at room temperature.
14. Add 100 μl per well of Biosource Goat anti-rabbit IgG peroxidase conjugate (1:6000 dilution in ADB). Incubate, with shaking for 1 hr. at room temperature.
15. Wash as in step 10 and then with PBS to remove bubbles and excess TWEEN.
16. Add 100 μl of ABTS/H2O2 solution to each well.
17. Incubate, with shaking, for 10 to 20 minutes. Remove any bubbles.
18. Read assay on Dynatech MR7000 ELISA reader: test filter at 410 nM, reference filter at 630 nM.

Sequence of FGFR1 (P11362 22-822, species assumed): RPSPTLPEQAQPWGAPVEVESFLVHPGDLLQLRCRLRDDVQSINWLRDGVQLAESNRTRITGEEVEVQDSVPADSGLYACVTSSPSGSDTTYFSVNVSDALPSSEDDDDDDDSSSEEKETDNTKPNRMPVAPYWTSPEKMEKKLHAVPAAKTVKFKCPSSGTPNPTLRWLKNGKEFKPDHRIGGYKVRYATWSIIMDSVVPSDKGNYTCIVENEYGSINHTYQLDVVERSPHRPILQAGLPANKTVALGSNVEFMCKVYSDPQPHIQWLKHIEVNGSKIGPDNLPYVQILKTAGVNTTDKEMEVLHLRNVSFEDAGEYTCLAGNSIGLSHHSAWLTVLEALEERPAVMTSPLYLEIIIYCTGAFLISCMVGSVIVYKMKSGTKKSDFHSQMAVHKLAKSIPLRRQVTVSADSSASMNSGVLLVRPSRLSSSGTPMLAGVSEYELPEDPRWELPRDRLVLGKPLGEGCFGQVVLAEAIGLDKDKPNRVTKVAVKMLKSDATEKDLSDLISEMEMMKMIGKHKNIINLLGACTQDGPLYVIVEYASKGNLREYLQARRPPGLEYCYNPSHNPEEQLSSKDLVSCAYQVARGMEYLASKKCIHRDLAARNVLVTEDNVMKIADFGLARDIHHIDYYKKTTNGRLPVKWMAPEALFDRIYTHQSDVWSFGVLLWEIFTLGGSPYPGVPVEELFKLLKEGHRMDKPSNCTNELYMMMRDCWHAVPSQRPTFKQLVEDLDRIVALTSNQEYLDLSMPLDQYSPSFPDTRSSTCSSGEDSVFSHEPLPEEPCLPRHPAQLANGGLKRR

IC50 [nM] | Compound
40 | CNS(=O)(=O)c1ccc2c(c1)/C(=C1\CC(CC(=O)O)c3cc(OC)ccc31)C(=O)N2 (centres unmarked) [Example 17, {6-Methoxy-3-[5-methylsulfamoyl-2-oxo-1,2-dihydro-indol-(3Z)-ylidene]-indan-1-yl}-acetic acid]
20 | CNS(=O)(=O)c1ccc2c(c1)/C(=C1\CCc3c1[nH]c(C)c3C(=O)NCC(O)CNC1CC1)C(=O)N2 (centres unmarked) [Example 11, 2-Methyl-6-[5-methylsulfamoyl-2-oxo-1,2-dihydro-indol-(3Z)-ylidene]-1,4,5,6-tetrahydro-cyclopenta[b]pyrrole-3-carboxylic acid (3-cyclopropylamino-2-hydroxy-propyl)-amide]
15 | CNS(=O)(=O)c1ccc2c(c1)/C(=C1\CCc3c1[nH]c(C)c3S(C)(=O)=O)C(=O)N2 [Example 16, 3-[3-Methanesulfonyl-2-methyl-4,5-dihydro-1H-cyclopenta[b]pyrrol-(6Z)-ylidene]-2-oxo-2,3-dihydro-1H-indole-5-sulfonic acid methylamide]
22 | CNS(=O)(=O)c1ccc2c(c1)/C(=C1\CCc3c1[nH]c(C)c3C(=O)O)C(=O)N2 [Example 5, 2-Methyl-6-[5-methylsulfamoyl-2-oxo-1,2-dihydro-indol-(3Z)-ylidene]-1,4,5,6-tetrahydro-cyclopenta[b]pyrrole-3-carboxylic acid]
17 | CNS(=O)(=O)c1ccc2c(c1)/C(=C1\CCc3c1[nH]c(C)c3C(=O)NCCN(C)C)C(=O)N2 [Example 12, 2-Methyl-6-[5-methylsulfamoyl-2-oxo-1,2-dihydro-indol-(3Z)-ylidene]-1,4,5,6-tetrahydro-cyclopenta[b]pyrrole-3-carboxylic acid (2-dimethylamino-ethyl)-amide]
600 | CCOC(=O)c1c(C)[nH]c2c1CC/C2=C1/C(=O)Nc2ccc(S(=O)(=O)NC)cc21 [Example 3, 2-Methyl-6-[5-methylsulfamoyl-2-oxo-1,2-dihydro-indol-(3Z)-ylidene]-1,4,5,6-tetrahydro-cyclopenta[b]pyrrole-3-carboxylic acid ethyl ester]
25 | CNS(=O)(=O)c1ccc2c(c1)/C(=C1\CCc3cc(C)[nH]c31)C(=O)N2 [Example 4, 3-[2-Methyl-4,5-dihydro-1H-cyclopenta[b]pyrrol-(6Z)-ylidene]-2-oxo-2,3-dihydro-1H-indole-5-sulfonic acid methylamide]

The remaining lines, values behind:

Compound | IC50 [nM]
CCOC(=O)c1c(C)[nH]c2c1CC/C2=C1/C(=O)Nc2ccc(S(=O)(=O)CC)cc21 [Example 9, 6-[5-Ethanesulfonyl-2-oxo-1,2-dihydro-indol-(3Z)-ylidene]-2-methyl-1,4,5,6-tetrahydro-cyclopenta[b]pyrrole-3-carboxylic acid ethyl ester] | 530
COc1ccccc1-c1ccc2c(c1)NC(=O)/C2=C1/CCc2c1[nH]c(C)c2C(=O)N1CCC[C@H]1CN1CCCC1 [Example 20] | 480
CNS(=O)(=O)c1ccc2c(c1)C(=C1CCCC1)C(=O)N2 [Example 15, 3-Cyclopentylidene-2-oxo-2,3-dihydro-1H-indole-5-sulfonic acid methylamide] | > 20000
CCOC(=O)c1c(C)[nH]c2c1CC/C2=C1/C(=O)Nc2ccc(S(C)(=O)=O)cc21 [Example 6, 6-[5-Methanesulfonyl-2-oxo-1,2-dihydro-indol-(3Z)-ylidene]-2-methyl-1,4,5,6-tetrahydro-cyclopenta[b]pyrrole-3-carboxylic acid ethyl ester] | 14500
Cc1[nH]c2c(c1C(=O)N1CCC[C@H]1CN1CCCC1)CC/C2=C1/C(=O)Nc2c(Cl)cccc21 [Example 21, 7-Chloro-3-[2-methyl-3-((S)-2-pyrrolidin-1-ylmethyl-pyrrolidine-1-carbonyl)-4,5-dihydro-1H-cyclopenta[b]pyrrol-(6Z)-ylidene]-1,3-dihydro-indol-2-one] | 1900
Cc1[nH]c2c(c1C(=O)N1CCC[C@H]1CN1CCCC1)CC/C2=C1/C(=O)Nc2ncccc21 [Example 22, 3-[2-Methyl-3-((S)-2-pyrrolidin-1-ylmethyl-pyrrolidine-1-carbonyl)-4,5-dihydro-1H-cyclopenta[b]pyrrol-(6Z)-ylidene]-1,3-dihydro-pyrrolo[2,3-b]pyridin-2-one] | 2070
COc1ccc2c(c1)NC(=O)/C2=C1/CCc2c1[nH]c(C)c2C(=O)N1CCC[C@H]1CN1CCCC1 [Example 19, 6-Methoxy-3-[2-methyl-3-((S)-2-pyrrolidin-1-ylmethyl-pyrrolidine-1-carbonyl)-4,5-dihydro-1H-cyclopenta[b]pyrrol-(6Z)-ylidene]-1,3-dihydro-indol-2-one] | 210
CCOC(=O)c1c(C)[nH]c2c1CC/C2=C1/C(=O)Nc2ccccc21 [Example 1, 2-Methyl-6-[2-oxo-1,2-dihydro-indol-(3Z)-ylidene]-1,4,5,6-tetrahydro-cyclopenta[b]pyrrole-3-carboxylic acid ethyl ester] | 79
CCOC(=O)c1c(C)[nH]c2c1CC/C2=C1/C(=O)Nc2ccc(S(=O)(=O)NC(C)C)cc21 [Example 8, 6-[5-Isopropylsulfamoyl-2-oxo-1,2-dihydro-indol-(3Z)-ylidene]-2-methyl-1,4,5,6-tetrahydro-cyclopenta[b] pyrrole-3-carboxylic acid ethyl ester] | > 20000
CCOC(=O)c1c(C)[nH]c2c1CC/C2=C1/C(=O)Nc2ccc(S(N)(=O)=O)cc21 [Example 14, 2-Methyl-6-[2-oxo-5-sulfamoyl-1,2-dihydro-indol-(3Z)-ylidene]-1,4,5,6-tetrahydro-cyclopenta[b]pyrrole-3-carboxylic acid ethyl ester] | 100
Cc1[nH]c2c(c1C(=O)N1CCC[C@H]1CN1CCCC1)CC/C2=C1/C(=O)Nc2ccc(F)cc21 [Example 18, 5-Fluoro-3-[2-methyl-3-((S)-2-pyrrolidin-1-ylmethyl-pyrrolidine-1-carbonyl)-4,5-dihydro-1H-cyclopenta[b]pyrrol-(6Z)-ylidene]-1,3-dihydro-indol-2-one] | 80
CCOC(=O)c1c(C)[nH]c2c1CC/C2=C1/C(=O)Nc2ccc(S(=O)(=O)N(C)C)cc21 [Example 7, 6-[5-Dimethylsulfamoyl-2-oxo-1,2-dihydro-indol-(3Z)-ylidene]-2-methyl-1,4,5,6-tetrahydro-cyclopenta[b]pyrrole-3-carboxylic acid ethyl ester] | > 20000
CNS(=O)(=O)c1ccc2c(c1)/C(=C1\CCc3c1[nH]c(C)c3C(=O)NCC(O)CN1CCCC1)C(=O)N2 (centres unmarked) [Example 10, 2-Methyl-6-[5-methylsulfamoyl-2-oxo-1,2-dihydro-indol-(3Z)-ylidene]-1,4,5,6-tetrahydro-cyclopenta[b]pyrrole-3-carboxylic acid (2-hydroxy-3-pyrrolidin-1-yl-propyl)-amide] | < 18
CNS(=O)(=O)c1ccc2c(c1)/C(=C1\CCc3c1[nH]c(C)c3C(=O)N1CCCC1CN1CCCC1)C(=O)N2 (stereo in doubt) [Example 13, 3-[2-Methyl-3-((R)-2-pyrrolidin-1-ylmethyl-pyrrolidine-1-carbonyl)-4,5-dihydro-1H-cyclopenta[b]pyrrol-(6Z)-ylidene]-2-oxo-2,3-dihydro-1H-indole-5-sulfonic acid methylamide] | 15
CCOC(=O)c1c(C)[nH]c2c1CC/C2=C1/C(=O)Nc2ccc(S(=O)(=O)Cc3c(Cl)cccc3Cl)cc21 [Example 2, 6-[5-(2,6-Dichloro-phenylmethanesulfonyl)-2-oxo-1,2-dihydro-indol-(3Z)-ylidene]-2-methyl-1,4,5,6-tetrahydro-cyclopenta[b]pyrrole-3-carboxylic acid ethyl ester] | 2500
COc1ccc(-c2ccc3c(c2)NC(=O)/C3=C2/CCc3c2[nH]c(C)c3C(=O)N2CCC[C@H]2CN2CCCC2)cc1 [Example 23, 6-(4-Methoxy-phenyl)-3-[2-methyl-3-((S)-2-pyrrolidin-1-ylmethyl-pyrrolidine-1-carbonyl)-4,5-dihydro-1H-cyclopenta[b]pyrrol-(6Z)-ylidene]-1,3-dihydro-indol-2-one] | 230
